Experimental data taken from US7928230B2, “Method for modulating GPR119 G protein-coupled receptor and selected compounds” (Bristol-Myers Squibb Company, priority 2007, dated 2011).
Counter-ions that a name gives are not always drawn.

target: T1, human GPR119 (Homo sapiens, UniProt Q8TDV5); assay: Human Tet-inducible cAMP assay; type: cell-based; settings: Flp-In-T-REx 293 tetracycline inducible cells expressing GPR119; Hit Hunter cAMP kit; 1 hour at 37° C.; read-out: hGPR119 EC50
T1 construct: expressed in transfected cells; host or cells: Flp-In-T-REx 293 cells, tetracycline-induced
T1 sequence (Q8TDV5 1-335): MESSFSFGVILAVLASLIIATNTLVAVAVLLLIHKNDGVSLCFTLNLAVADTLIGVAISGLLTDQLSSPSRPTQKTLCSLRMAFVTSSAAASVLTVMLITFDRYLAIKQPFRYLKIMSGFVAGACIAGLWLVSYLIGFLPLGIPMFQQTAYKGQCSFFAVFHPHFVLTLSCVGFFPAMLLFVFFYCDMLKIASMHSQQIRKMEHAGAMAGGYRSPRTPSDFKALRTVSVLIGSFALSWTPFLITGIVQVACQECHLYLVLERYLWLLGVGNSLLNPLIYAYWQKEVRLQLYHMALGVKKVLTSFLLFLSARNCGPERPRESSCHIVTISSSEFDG
Experimental: The in vitro modulation of recombinant human GPR119 was determined as follows.
Human Tet-inducible cAMP Assay
Cell lines expressing GPR119 are generated using the Flp-In-T-REx 293 tetracycline inducible gene expression system are cultured in culture medium comprising the following components: DMFM#11965, 10% FBS, 2 mM L-glutamine, 200 ug/ml Hygromycin B, and 15 ug/ml blasticidin.
For cAMP assays, cells are plated on 96 well plates (e.g., BD Falcon: REF 353948, black side, clear bottom, TC surface) at a density of about 4.5×10^4 cells per well in growth medium containing 1.0 ug/ml tetracycline (1.0 mg/ml stock). The cells are then incubated for 48 hours at 37° C.
Following the incubation, the growth medium is removed from the wells and the wells rinsed (once) with the assay buffer included in the Hit Hunter cAMP kit (100 μl/well). Following the wash, 20 μl of assay buffer is added to each well, followed by addition of 10 μl of a 3× concentration compound working solution. The solution is then mixed. The final concentration range of compound is from about 10^−5M to about 10^−11M. The reagents are then incubated at 37° C. at 5% CO2 for 1 hour.
The manufacturer's protocol may be followed for cAMP determination. The Hit Hunter cAMP kit protocol is outlined for the HIT-T15 cAMP assays described above.
Compounds of the present invention were tested in the Human Tet-inducible cAMP assay described immediately above and the results shown in Table 4 below were obtained.

| Compound | EC50 |
| --- | --- |
| CC(C)OC(=O)N1CCC(Oc2ccn(-c3ccc(-n4cncn4)cc3)c(=O)c2)CC1 [Example 4, isopropyl 4-(1-(4-(1H-1,2,4-triazol-1-yl)phenyl)-2-oxo-1,2-dihydropyridin-4-yloxy)piperidine-1-carboxylate] | 5190 nM |
| CCCc1cnc(N2CCC(Oc3ccn(-c4ccc(-c5ncco5)cc4)c(=O)c3)CC2)nc1 [Example 3, 1-(4-(oxazol-2-yl)phenyl)-4-(1-(5-propylpyrimidin-2-yl)piperidin-4-yloxy)pyridin-2(1H)-one] | 204 nM |
| CCCc1cnc(N2CCC(Oc3ccn(-c4ccc(-n5ccnc5)cc4)c(=O)c3)CC2)nc1 [Example 2, 1-(4-(1H-imidazol-1-yl)phenyl)-4-(1-(5-propylpyrimidin-2-yl)piperidin-4-yloxy)pyridin-2(1H)-one, hydrochloride salt] | 94 nM |
| CCCc1cnc(N2CCC(Oc3ccn(-c4ccc(-n5cncn5)cc4)c(=O)c3)CC2)nc1 [Example 1, 1-(4-(1H-1,2,4-triazol-1-yl)phenyl)-4-(1-(5-propylpyrimidin-2-yl)piperidin-4-yloxy)pyridin-2(1H)-one, hydrochloride salt] | 87 nM |
